Assay results as given in article PMC5011342, “A high throughput drug screening assay to identify compounds that promote oligodendrocyte differentiation using acutely dissociated and purified oligodendrocyte precursor cells” (BMC Research Notes, 2016).
Structures can show the parent of a compound that is named as a salt. Where two headings read alike, the source gives them in different places.

Experiments:
[1] = tested on: acutely dissociated and purified rat OPCs; assay: Acute OL differentiation assay (MBP expression/cell, immunofluorescent image quantification); format: cell-based; details: sheet "All OLga data"
Outline: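 This acute differentiation assay used purified rat OPCs from postnatal day 6–7 pups, seeded into PDL/laminin-coated 96-well plates in differentiation medium lacking PDGF and FGF. Compounds were applied in quadruplicate after a 1–2 h preincubation at 37 °C, 10 % CO2, with 0.1 % DMSO negative and 40 ng/ml T3 positive controls in eight wells. After fixation on DIV4, anti-MBP immunofluorescence images yielded MBP expression/cell.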

expanded OPCs = assay: cells; details: for viability at 0.1 µM / viability at 1 µM / viability at 10 µM: Rattus norvegicus, 72 h
Procedure: Having established a consistent assay for measuring OL differentiation in vitro, the next step was to utilize this assay to assess the ability of a wide array of compounds to promote OL differentiation. Prior to library screening, we first established the maximum non-toxic dose of each compound in the library. […] Therefore, we added each compound in the NIH clinical collection (NCC) library to OPCs at 10, 1, and 0.1 µM concentrations. Three days later, we assessed viability of the treated cells by measuring AlamarBlue fluorescence, a measure of cell viability (see “Methods” section). […] Appropriately, we established three sets of screening concentrations for library compounds: non-toxic compounds were tested at 10 and 2 µM, slightly toxic compounds (only toxic at 10 µM) were tested at 2 and 0.4 µM, and very toxic compounds were tested at 0.4 and 0.08 µM.
OPCs were expanded in vitro by seeding into PDL-coated tissue culture flasks at 1000–2000 cells/cm^2 in differentiation media supplemented with 10 ng/ml PDGF-AA. Proliferating OPCs were fed every 2–3 days and supplemented with 2–3× concentration of PDGF as needed to prevent OPC differentiation. After 6–7 days of proliferation, OPCs were harvested by trypsinization, plated into PDL-coated 96-well Falcon plates and centrifuged at 200×g to facilitate cell attachment, survival, and even distribution of cells. Expanded OPCs were seeded in differentiation media at 10,000 cells/well and incubated for 2 h at 37 °C, 10 % CO2 prior to addition of compounds. The NCC library was diluted and added to cells at 10, 1, and 0.1 µM; each concentration was tested in quadruplicate. As a positive control for the induction of toxicity, 5 ng/ml tunicamycin was added to 8 wells in each plate. Three days later, a 1:10 dilution of alamarBlue® (AB) was added to each well and cells were incubated 4 h at 37 °C, 10 % CO2. AB fluorescence was measured using a PerkinElmer Victor II fluorescence microplate reader (PerkinElmer, Waltham, MA) with 560 nm excitation/590 nm emission filters. For library screening, the highest concentration of each compound was adjusted to a minimally toxic concentration based on this toxicity data. Compounds were additionally tested at a second concentration that was 1/5th of the top concentration. The final concentration of DMSO in each well was 0.1 %.

[2] = Rattus norvegicus, test compound at 2 uM, MBP expression relative to quetiapine, NCC library screen, read-out: 2 uM (% Quet)
[3] = Rattus norvegicus, test compound at 10 uM, MBP expression relative to quetiapine, NCC library screen, read-out: 10 uM (% Quet)
[4] = alamarBlue viability of expanded OPCs, compound at 0.1 µM, relative to DMSO control
[5] = alamarBlue viability of expanded OPCs, compound at 1 µM, relative to DMSO control
[6] = alamarBlue viability of expanded OPCs, compound at 10 µM, relative to DMSO control
[7] = Rattus norvegicus, test compound at 2 uM, NCC library screen, relative to quetiapine, read-out: 2 uM (% Quet)
[8] = Rattus norvegicus, test compound at 10 uM, NCC library screen, relative to quetiapine, read-out: 10 uM (% Quet)
[9] = read-out: 0.1 µM (% DMSO), alamarBlue viability, NCC library compound at 0.1 µM, sheet "All Tox data"
[10] = read-out: 1 µM (% DMSO), alamarBlue viability, NCC library compound at 1 µM, sheet "All Tox data"
[11] = read-out: 10 µM (% DMSO), alamarBlue viability, NCC library compound at 10 µM, sheet "All Tox data"
[12] = Rattus norvegicus, 2 uM test compound, relative to quetiapine, read-out: OL differentiation, 2 uM (% Quet)
[13] = Rattus norvegicus, 10 uM test compound, relative to quetiapine, read-out: OL differentiation, 10 uM (% Quet)
[14] = read-out: 0.1 µM (% DMSO), alamarBlue viability of expanded OPCs, compound at 0.1 µM, sheet All Tox data
[15] = read-out: 1 µM (% DMSO), alamarBlue viability of expanded OPCs, compound at 1 µM, sheet All Tox data
[16] = read-out: 10 µM (% DMSO), alamarBlue viability of expanded OPCs, compound at 10 µM, sheet All Tox data

| Compound | 0.1 µM (% DMSO) (expanded OPCs; [4]) | 1 µM (% DMSO) (expanded OPCs; [5]) | 10 µM (% DMSO) (expanded OPCs; [6]) | activation at 2 µM [1, 7] | activation at 10 µM [1, 8] | viability at 0.1 µM (expanded OPCs; [9]) | viability at 1 µM (expanded OPCs; [10]) | viability at 10 µM (expanded OPCs; [11]) | activation at 2 µM [1, 12] | activation at 10 µM [1, 13] | viability at 0.1 µM (expanded OPCs; [14]) | viability at 1 µM (expanded OPCs; [15]) | viability at 10 µM (expanded OPCs; [16]) | other results |
| --- | --- | --- | --- | --- | --- | --- | --- | --- | --- | --- | --- | --- | --- | --- |
| CC1(C)S[C@@H]2[C@H](NC(=O)[C@H](N)c3ccc(O)cc3)C(=O)N2[C@H]1C(=O)O [Amoxicillin] | 93.8 % DMSO | 104.4 % DMSO | 96.1 % DMSO |  |  |  |  |  |  |  |  |  |  | activation at 2 µM [1, 2]: 17.9%; activation at 10 µM [1, 3]: -7% |
| CC1(C)S[C@@H]2[C@H](NC(=O)[C@H](N)c3ccccc3)C(=O)N2[C@H]1C(=O)O [Ampicillin] | 88.7 % DMSO | 94.1 % DMSO | 94.1 % DMSO |  |  |  |  |  |  |  |  |  |  | activation at 2 µM [1, 2]: -10.9%; activation at 10 µM [1, 3]: -36.2% |
| CCOC(=O)OC(C)OC1=C(C(=O)Nc2ccccn2)N(C)S(=O)(=O)c2ccccc21 (centres unmarked) [Ampiroxicam] |  |  |  | 12.7% | -2% | 97.8% | 82.6% | 90.8% |  |  |  |  |  |  |
| O=C1CN2Cc3c(ccc(Cl)c3Cl)N=C2N1 [Anagrelide hydrochloride] |  |  |  |  |  | 93.1% | 90.4% | 81.2% | -7% | -4.5% |  |  |  |  |
| CC(C)(C#N)c1cc(Cn2cncn2)cc(C(C)(C)C#N)c1 [Anastrozole] |  |  |  | -29.6% | -33% | 87.4% | 92.9% | 80.3% |  |  |  |  |  |  |
| CC1CNc2c(cccc2S(=O)(=O)N[C@@H](CCCNC(=N)N)C(=O)N2CC[C@@H](C)C[C@@H]2C(=O)O)C1 (some centres unmarked) [Argatroban] |  |  |  |  |  |  |  |  | 0.26% | 2.3% | 103% | 101% | 93% |  |
| O=C1CCc2ccc(OCCCCN3CCN(c4cccc(Cl)c4Cl)CC3)cc2N1 [Aripiprazole] |  |  |  |  |  |  |  |  | -18.8% |  | 88.2% | 86.5% | 11.3% | activation at 0.4 µM ([1]; Rattus norvegicus, 0.4 uM test compound, relative to quetiapine, read-out: OL differentiation, 0.4 uM (% Quet)): -30.6% |
| CO[C@H]1O[C@@H]2O[C@@]3(C)CC[C@H]4[C@H](C)CC[C@@H]([C@H]1C)[C@@]24OO3 [Artemethe] |  |  |  |  |  |  |  |  |  |  |  |  |  | 2 uM (% Quet) ([1]; test compound at 2 uM, NCC library screen, relative to quetiapine): -5.4 % Quet; 10 uM (% Quet) ([1]; test compound at 10 uM, NCC library screen, relative to quetiapine): -21.6 % Quet; 0.1 µM (% DMSO) (expanded OPCs; alamarBlue viability, NCC library compound at 0.1 µM, sheet "All Tox data"): 81.3 % DMSO; 1 µM (% DMSO) (expanded OPCs; alamarBlue viability, NCC library compound at 1 µM, sheet "All Tox data"): 76.5 % DMSO; 10 µM (% DMSO) (expanded OPCs; alamarBlue viability, NCC library compound at 10 µM, sheet "All Tox data"): 77.8 % DMSO |
| C[C@H]1[C@H](OC(=O)CCC(=O)O)O[C@@H]2O[C@@]3(C)CC[C@H]4[C@H](C)CC[C@@H]1[C@@]24OO3 [Artesunate] |  |  |  |  |  |  |  |  | -39.6% | -122% | 93.2% | 101% | 74% |  |
| CC(C)NCC(O)COc1ccc(CC(N)=O)cc1 (centres unmarked) [Atenolol] | 90.5 % DMSO | 105.2 % DMSO | 146.2 % DMSO | 31.5% | 86.2% |  |  |  |  |  |  |  |  |  |
